11 compounds from patent US11584744B2 (UNIVERSITY OF WASHINGTON, priority 2017, dated 2023) can be followed below.

In brackets after ≈: the same amount, converted by molar mass. Like-named read-outs stand apart in the source and are kept apart here.

Test [1] concerns the target MetRS (C. parvum) (Cryptosporidium parvum, UniProt Q5CVN0). In words: MetRS (C. parvum) enzyme inhibition. Format: biochemical. Conditions: read-out: (C) MetRS (C. parvum) IC50.
The target of test [2] is recombinant S. aureus MetRS enzyme (Staphylococcus aureus, UniProt A0A0H2XID2). Briefly: Inhibition of SaMetRS, ATP depletion assay. The format is biochemical. Conditions: read-out: (B) MetRS (S. aureus) IC50. The procedure: Production of recombinant S. aureus MetRSs. The SaMetRS gene (UniProtKB—A0A0H2XID2) was PCR amplified (Sense 5′-[…]-3′ (SEQ ID NO: 1) and Antisense 5′-[…]-3′ (SEQ ID NO:2)) from genomic DNA isolated from S. aureus (ATCC 29213) cultures. The PCR product was then cloned into the AVA0421 plasmid and sequence verified. The expression of recombinant protein was performed as previously described. The N-terminal 6-His fusion proteins were purified by nickel affinity chromatography followed by size exclusion gel chromatography (Superdex 75 26/60; GE Biosciences, Piscataway, N.J.).
Enzyme assays. Inhibition of SaMetRS was measured using the ATP depletion assay as previously described with some modifications. Compounds were pre-incubated for 15 minutes at room temperature in a 96-well plate with 400 μg/mL bulk E. coli tRNA, 25 nM SaMetRS, 0.1 U/mL pyrophosphatase, 0.2 mM spermine, 0.1 mg/mL bovine serum albumin, 2.5 mM dithiothreitol, 25 mM HEPES-KOH pH 7.9, 10 mM MgCl2, 50 mM KCl, and 2% DMSO. Reagents were purchased from Sigma-Aldrich or Roche. The reaction was started with the addition of 150 nM ATP and 20 μM L-methionine and after 120 minute incubation was stopped by the addition of an equal volume (50 μL) of Kinase-Glo® (Promega). Percent inhibition=100×(test compound−AVG low control)/(AVG high control−AVG low control) where the low control is all reagents except the compound and the high control is all reagents except the compounds and L-methionine. IC50 values were calculated by non-linear regression, sigmoidal-dose response, in Prism 3.0.

Test [3] concerns T. brucei. Briefly: T. brucei growth inhibition. The format is cell-based, Trypanosoma brucei. Conditions: read-out: (D) T. brucei EC50.
Test [4] concerns S. aureus MSSA (ATCC 29213). Briefly: MIC susceptibility testing. Format: cell-based, Staphylococcus aureus. Conditions: S. aureus ATCC 29213; for MIC: Staphylococcus aureus, read-out: (F) S. aureus (ATCC 29213) MIC.
Test [5] concerns T. cruzi. In words: T. cruzi growth inhibition. The format is cell-based, Trypanosoma cruzi. Conditions: read-out: (E) T. cruzi EC50.
Test [6] has as its target T1, MetRS (T. brucei) (Trypanosoma brucei brucei, UniProt Q38C91).
T1 sequence (Q38C91 1-773): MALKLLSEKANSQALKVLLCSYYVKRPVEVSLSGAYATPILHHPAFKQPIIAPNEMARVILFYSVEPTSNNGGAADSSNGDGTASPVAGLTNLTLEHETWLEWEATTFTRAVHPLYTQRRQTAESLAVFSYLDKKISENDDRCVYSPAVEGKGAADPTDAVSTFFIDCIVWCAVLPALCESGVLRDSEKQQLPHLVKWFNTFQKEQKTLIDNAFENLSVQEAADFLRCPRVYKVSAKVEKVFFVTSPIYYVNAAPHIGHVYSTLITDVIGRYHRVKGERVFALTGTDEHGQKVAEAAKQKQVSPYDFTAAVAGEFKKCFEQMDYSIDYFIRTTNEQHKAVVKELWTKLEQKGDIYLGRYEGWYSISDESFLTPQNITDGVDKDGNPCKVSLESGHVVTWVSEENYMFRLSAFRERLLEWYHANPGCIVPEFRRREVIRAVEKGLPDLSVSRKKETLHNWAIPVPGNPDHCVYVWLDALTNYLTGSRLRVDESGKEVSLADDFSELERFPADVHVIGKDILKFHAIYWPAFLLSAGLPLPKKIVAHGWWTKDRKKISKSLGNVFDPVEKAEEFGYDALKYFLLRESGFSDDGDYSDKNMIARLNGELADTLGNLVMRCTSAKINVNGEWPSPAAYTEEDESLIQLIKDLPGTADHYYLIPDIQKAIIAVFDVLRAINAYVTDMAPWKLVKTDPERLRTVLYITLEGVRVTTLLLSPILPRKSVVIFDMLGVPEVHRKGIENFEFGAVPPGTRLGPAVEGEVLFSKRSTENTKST
Briefly: MetRS (T. brucei) enzyme inhibition. The format is biochemical.

Test [7] deals with E. faecium VRE (ATCC 51559). In words: MIC susceptibility testing. Format: cell-based, Enterococcus faecium. Conditions: Enterococcus faecium, E. faecium ATCC 51559; read-out: (I) E. faecium (ATCC 51559) MIC. A digest of the protocol: (§1)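 CLSI broth microdilution in triplicate, 5×10^5 CFU/mL final, ≤0.5% DMSO; MHB for S. aureus, CA-MHB for E. coli and E. faecium, CA-MHB plus 3% laked horse blood for S. pyogenes (5% CO2).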

For test [8], the system named is C. parvum. Briefly: C. parvum growth inhibition. The format is cell-based, Cryptosporidium parvum. Conditions: read-out: (J) C. parvum EC50.
Test [9] deals with S. aureus MRSA (ATCC 33591). Briefly: MIC susceptibility testing. Format: cell-based, Staphylococcus aureus. Conditions: Staphylococcus aureus, MRSA ATCC33591; read-out: (G) MRSA (ATCC33591) MIC. A digest of the protocol: as §1

Chain of recombinant S. aureus MetRS enzyme (A0A0H2XID2 2-657): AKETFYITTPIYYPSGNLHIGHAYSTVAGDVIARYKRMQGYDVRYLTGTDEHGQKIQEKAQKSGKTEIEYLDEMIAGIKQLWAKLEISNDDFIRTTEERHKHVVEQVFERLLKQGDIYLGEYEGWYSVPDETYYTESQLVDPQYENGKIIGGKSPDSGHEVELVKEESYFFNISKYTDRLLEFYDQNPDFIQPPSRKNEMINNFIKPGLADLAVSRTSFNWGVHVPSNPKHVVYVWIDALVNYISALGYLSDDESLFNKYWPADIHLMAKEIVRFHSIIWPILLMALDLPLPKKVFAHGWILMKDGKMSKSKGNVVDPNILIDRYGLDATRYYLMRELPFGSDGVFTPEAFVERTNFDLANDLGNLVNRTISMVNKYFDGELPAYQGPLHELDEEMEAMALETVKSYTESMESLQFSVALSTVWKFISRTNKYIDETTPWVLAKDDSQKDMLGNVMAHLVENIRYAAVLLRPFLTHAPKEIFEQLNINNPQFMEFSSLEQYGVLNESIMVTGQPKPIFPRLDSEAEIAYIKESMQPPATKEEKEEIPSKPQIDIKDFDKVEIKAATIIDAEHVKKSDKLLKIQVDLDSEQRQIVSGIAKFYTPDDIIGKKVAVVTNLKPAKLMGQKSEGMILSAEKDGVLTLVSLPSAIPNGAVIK
Chain of MetRS (C. parvum) (Q5CVN0 entry or part of it): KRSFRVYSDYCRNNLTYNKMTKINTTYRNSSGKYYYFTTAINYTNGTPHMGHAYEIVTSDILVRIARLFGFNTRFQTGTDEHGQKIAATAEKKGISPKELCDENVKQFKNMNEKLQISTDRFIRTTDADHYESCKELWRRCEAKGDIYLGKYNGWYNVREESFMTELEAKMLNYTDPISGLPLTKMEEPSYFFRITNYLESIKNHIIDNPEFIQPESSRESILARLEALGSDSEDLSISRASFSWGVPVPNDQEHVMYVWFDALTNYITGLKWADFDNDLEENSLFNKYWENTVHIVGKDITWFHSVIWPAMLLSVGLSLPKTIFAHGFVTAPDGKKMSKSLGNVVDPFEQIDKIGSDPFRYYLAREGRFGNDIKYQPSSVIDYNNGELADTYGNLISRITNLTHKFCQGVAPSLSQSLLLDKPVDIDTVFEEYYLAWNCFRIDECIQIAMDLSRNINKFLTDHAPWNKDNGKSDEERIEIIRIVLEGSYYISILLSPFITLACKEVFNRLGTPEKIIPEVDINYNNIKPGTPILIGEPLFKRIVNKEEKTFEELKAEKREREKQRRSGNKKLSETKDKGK

What is called IC50 is the point on the concentration scale where inhibition reaches its midpoint. For orientation: EC50 means the concentration that produces a half-maximal response. By MIC is commonly meant the lowest concentration that inhibits growth of the organism. As for `COc1ccc(-c2ccc3c(=O)ccn(Cc4nc5nc(F)ccc5[nH]4)c3c2)c(Cl)c1` [Compound 2168, 7-(2-chloro-4-methoxyphenyl)-1-((5-fluoro-1H-imidazo[4,5-b]pyridin-2-yl)methyl)quinolin-4(1H)-one], the IC50 in test [1] was < 0.04 µM; in test [2] it was < 0.025 µM; in test [6], < 0.04 µM. Further, the values for the concentration for a half-maximal effect (EC50) in [3] (Trypanosoma brucei) and in test [5] (Trypanosoma cruzi) were > 0.2 µM and 6.15 µM, respectively. For the same compound, the MIC in test [4] was > 1.25 µg/mL; in test [7], > 2.5 µg/mL.
With `COc1ccc(-c2cccc3nc(Cc4nc5nc(C(F)(F)F)ccc5[nH]4)cn23)c(Cl)c1` [Compound 2166, 5-(2-chloro-4-methoxyphenyl)-2-{[5-(trifluoromethyl)-1H-imidazo[4,5-b]pyridin-2-yl]methyl}imidazo[1,2-a]pyridine], the IC50 is > 1 µM in test [1], 0.177 µM in test [2] and < 0.04 µM in test [6]. Further, the EC50 was > 0.2 µM in [3] (Trypanosoma brucei) and 0.596 µM in test [5] (Trypanosoma cruzi). The MIC was > 1.25 µg/mL in test [4] and > 2.5 µg/mL in [7].
Regarding `COCCn1c(Cc2ccc(Cl)cc2Cl)cn(Cc2nc3ccc(F)nc3[nH]2)c1=O` [Compound 2077, 4-[(2,4-dichlorophenyl)methyl]-1-({5-fluoro-1H-imidazo[4,5-b]pyridin-2-yl}methyl)-3-(2-methoxyethyl)-2,3-dihydro-1H-imidazol-2-one], the concentration for half-maximal inhibition (IC50) in [1] is < 0.04 µM; in test [2] it was < 0.025 µM; in test [6] it was < 0.04 µM. Further, the figures for the EC50 in [8] (Cryptosporidium parvum), in [8] and in [5] (Trypanosoma cruzi) were 0.475 µM, 0.283 µM and 0.215 µM, respectively. The MIC in test [4] was 0.818 µg/mL (≈ 1.82 µM); in [9], > 2.5 µg/mL.
For `CCn1c(Cc2ccc(Cl)cc2Cl)cn(Cc2nc3ccc(Br)nc3[nH]2)c1=O` [Compound 2091, 1-({5-bromo-1H-imidazo[4,5-b]pyridin-2-yl}methyl)-4-[(2,4-dichlorophenyl)-methyl]-3-ethyl-2,3-dihydro-1H-imidazol-2-one], the figures for the IC50 in [1], in [2] and in test [6] were < 0.04 µM, < 0.025 µM and < 0.04 µM, respectively. For the same compound, the EC50 in test [8] (Cryptosporidium parvum) was determined as 0.598 µM; in test [3] (Trypanosoma brucei), 0.0028 µM; in [5] (Trypanosoma cruzi) it was 0.059 µM; in test [5], 0.0406 µM. Further, the minimum inhibitory concentration (MIC) in [4] is 0.199 µg/mL (≈ 0.414 µM); in [9], > 2.5 µg/mL.
As for `COCCCn1c(Cc2ccc(Cl)cc2Cl)cn(Cc2nc3ccc(F)nc3[nH]2)c1=O` [Compound 2082, 4-[(2,4-dichlorophenyl)methyl]-1-({5-fluoro-1H-imidazo[4,5-b]pyridin-2-yl}methyl)-3-(3-methoxypropyl)-2,3-dihydro-1H-imidazol-2-one], the values for the IC50 in test [1], in test [2] and in test [6] were < 0.04 µM, < 0.025 µM and < 0.04 µM, respectively. The MIC in test [4] is 0.18 µg/mL (≈ 0.388 µM); in test [9], 1.54 µg/mL (≈ 3.32 µM); in [7] it was 0.238 µg/mL (≈ 0.513 µM). The EC50 in test [5] (Trypanosoma cruzi) stood at 0.145 µM.
On to `Fc1ccc2[nH]c(Cc3cn4c(-c5ccc(Cl)cc5Cl)cccc4n3)nc2n1` [Compound 2135, 5-(2,4-dichlorophenyl)-2-({5-fluoro-1H-imidazo[4,5-b]pyridin-2-yl}methyl)imidazo[1,2-a]pyridine], for which the concentration for half-maximal inhibition (IC50) in test [1] was 0.0567 µM; in [2], < 0.025 µM; in test [6], < 0.04 µM. Also, the EC50 stood at 0.0993 µM in test [3] (Trypanosoma brucei) and 2.16 µM in test [5] (Trypanosoma cruzi). The MIC stood at 0.592 µg/mL (≈ 1.44 µM) in test [4] and 1.33 µg/mL (≈ 3.23 µM) in test [7].
`CCCn1c(Cc2ccc(Cl)cc2Cl)cn(Cc2nc3ccc(Cl)nc3[nH]2)c1=O` [Compound 2079, 1-({5-chloro-1H-imidazo[4,5-b]pyridin-2-yl}methyl)-4-[(2,4-dichlorophenyl)-methyl]-3-propyl-2,3-dihydro-1H-imidazol-2-one]: the IC50 in test [1] was < 0.04 µM; in test [2] it was < 0.025 µM; in test [6], < 0.04 µM. The EC50 is < 0.00091 µM in test [3] (Trypanosoma brucei), 0.00179 µM in test [3], 0.026 µM in test [5] (Trypanosoma cruzi) and 0.0225 µM in test [5]. Also, the “(F) S. aureus (ATCC 29213) MIC” value in [4] turned out to be 0.0391 µg/mL. For the same compound, the MIC in test [4] is 0.044 µg/mL (≈ 0.0976 µM); in test [9] it was > 2.5 µg/mL.
Take `COc1ccc(-c2cnc(N3CCN(C(C)=O)CC3)c3nc(Cc4nc5nc(Cl)ccc5[nH]4)cn23)c(Cl)c1` [Compound 2185, 1-{4-[2-({5-chloro-1H-imidazo[4,5-b]pyridin-2-yl}methyl)-5-(2-chloro-4-methoxyphenyl)imidazo[1,2-a]pyrazin-8-yl]piperazin-1-yl}ethan-1-one]: the IC50 in [1] was < 0.04 µM; in [2] it was < 0.025 µM; in test [6] it was < 0.04 µM. Further, the EC50 in [8] (Cryptosporidium parvum) amounted to 0.243 µM; in [5] (Trypanosoma cruzi), 0.0716 µM; in test [5] it was 0.0909 µM. Besides, the MIC turned out to be 0.358 µg/mL (≈ 0.649 µM) in [4] and 1.2 µg/mL (≈ 2.18 µM) in test [9].
On to `COc1ccc(-c2cn(Cc3ccccc3)c3c2CN(Cc2nc4nc(Cl)ccc4[nH]2)CC3)c(Cl)c1` [Compound 2176, 2-((1-benzyl-3-(2-chloro-4-methoxyphenyl)-6,7-dihydro-1H-pyrrolo[3,2-c]pyridin-5(4H)-yl)methyl)-5-chloro-1H-imidazo[4,5-b]pyridine], for which the IC50 in test [1] was 0.08 µM; in [2] it was < 0.025 µM; in [6], < 0.04 µM. The EC50 in test [3] (Trypanosoma brucei) worked out at 0.0406 µM; in test [5] (Trypanosoma cruzi) it was 0.283 µM. The MIC in test [4] was > 0.5 µg/mL; in test [9] it was > 2.5 µg/mL.
For `COc1cc(-c2cccc3nc(Cc4nc5nc(Cl)ccc5[nH]4)cn23)c(Cl)cc1Cl` [Compound 2128, 2-({5-chloro-1H-imidazo[4,5-b]pyridin-2-yl}methyl)-5-(2,4-dichloro-5-methoxyphenyl)imidazo[1,2-a]pyridine], the IC50 in test [1] was < 0.04 µM; in [2], < 0.025 µM; in test [6], < 0.04 µM. Moreover, the EC50 in [8] (Cryptosporidium parvum) amounted to 1.68 µM; in test [3] (Trypanosoma brucei) it was 0.00362 µM; in test [3] it was 0.0034 µM; in test [5] (Trypanosoma cruzi), 0.00588 µM; in [5], 0.0108 µM. Further, in [7], the MIC stood at 0.24 µg/mL (≈ 0.523 µM).
For `O=c1n(Cc2nc3nc(F)ccc3[nH]2)cc(Cc2ccc(Cl)cc2Cl)n1CC(F)F` [Compound 2139, 4-[(2,4-dichlorophenyl)methyl]-3-(2,2-difluoroethyl)-1-({5-fluoro-1H-imidazo[4,5-b]pyridin-2-yl}methyl)-2,3-dihydro-1H-imidazol-2-one], the IC50 is < 0.04 µM in test [1], < 0.025 µM in test [2] and < 0.04 µM in test [6]. The EC50 is 0.193 µM in test [8] (Cryptosporidium parvum) and 0.00321 µM in test [3] (Trypanosoma brucei). Besides, the values for the MIC in [4] and in [9] were 0.0776 µg/mL (≈ 0.17 µM) and 0.307 µg/mL (≈ 0.673 µM), respectively.
